# Source: paper doi:10.1101/2025.07.08.663703, “Recruitment of Mre11 to recombination sites during meiosis” (bioRxiv, 2025)
# Ends that are not written are not given here.
# Tests used:
# [1] = test system: MMS-induced Mre11myc foci; assay: Immunofluorescence of MMS-induced Mre11myc foci in vegetative yeast, 1,6-hexanediol treatment; format: cell-based, Saccharomyces cerevisiae SK1; conditions: 5% 1,6-hexanediol, 4–5 minutes, spheroplasts, vegetative cells
# Description: Following standard protocols, strains were patched on YPG plates, mated and streaked on YPD plates, and selected diploid colonies grown in liquid YPD at 30°C, 250 rpm, overnight. For meiotic synchronization, diploid cultures grown overnight in YPD were transferred to YPA (1% yeast extract, 2% peptone, 1% potassium acetate) at OD600 0.2 and grown for 12–14 hours at 30°C, 250 rpm. […]
# Slides were blocked with 90% FBS, 1× PBS for 1 hour at room temperature in a humid chamber and then incubated with primary antibody (mouse mAb anti-myc, 1:200 (2276S, Cell Signaling Technology), rabbit anti-phospho H2A-S129, 1:200 (ab15083, abcam)) diluted in 3% BSA, 1× PBS in a humid chamber for 2 hours at 37°C or overnight at 4°C. Slides were washed three times with 1× PBS in a Coplin jar, were incubated with secondary antibody (goat anti-mouse IgG Alexa Fluor™ Plus 488, 1:200 (A32723, Invitrogen), donkey anti-rabbit IgG Alexa Fluor™ 546, 1:200 (A10040, Invitrogen) diluted in 3% BSA, 1× PBS in a humid chamber at 37°C for 1 hour. Slides were washed in the dark three times for 5 mins with 1× PBS, mounted with Vectashield containing DAPI (Vector Labs). Images were captured on a Zeiss Axio Observer with a 100×/1.4 NA oil immersion objective and were analyzed in ImageJ.
# [2] = test system: mre11-ΔC49 and mre11-ΔIDR yeast strains; assay: MMS and CPT sensitivity assay (spotting of serial dilutions); format: cell-based, Saccharomyces cerevisiae SK1; conditions: ten-fold serial dilutions on YPD plates, two days at 30°C; for resistance of mre11-ΔC49 mutant: mre11-ΔC49 strain; for resistance of mre11-ΔIDR mutants: mre11-ΔIDR strain
# Description: Following standard protocols, strains were patched on YPG plates, mated and streaked on YPD plates, and selected diploid colonies grown in liquid YPD at 30°C, 250 rpm, overnight. For meiotic synchronization, diploid cultures grown overnight in YPD were transferred to YPA (1% yeast extract, 2% peptone, 1% potassium acetate) at OD600 0.2 and grown for 12–14 hours at 30°C, 250 rpm. Once the cultures reached OD600 between 1.2–1.6, cells were washed once with prewarmed sterile water and immediately transferred to sporulation medium supplemented with amino acids (320 μL amino acid complementation media for 100 mL of sporulation media (SPM)) and were kept shaking at 30°C, 250 rpm during the entire meiotic time-course. For MMS and CPT (Sigma) sensitivity assays, serial dilutions of overnight cultures were spotted on freshly prepared YPD-MMS or YPD-CPT plates containing indicated percentage of MMS or CPT, respectively. Plates were grown for two days at 30°C. For immunofluorescence of vegetatively growing cells, overnight cultures were refreshed by diluting to OD600 0.2 and grown for 3–4 hours to reach OD600 1.2–1.4 before subjecting to MMS or MMS followed by 5% 1,6-hexanediol treatment. For 5% 1,6-hexanediol treatment, cells were first converted to spheroplasts and then treated with 5% 1,6-hexanediol for 4–5 minutes. Spheroplasts were then immediately washed, lysed, and fixed using protocol described below.
# Smt3 = molecular target: T1, Smt3 (Saccharomyces cerevisiae, UniProt Q12306); assay: NMR chemical shift perturbation of U-[13C,15N] Smt3 by SIM3 peptides; format: binding, yeast (S. cerevisiae); conditions: [1H,15N] HSQC, 1.2 molar equivalents of peptide, 0.3 mM U-[13C,15N] Smt3, 20 mM sodium phosphate, 20 mM NaCl, pH 6.5, 10% D2O, 298 K, 800 MHz
# T1 construct: 6xHis (C); made in house; host or cells: E. coli BL21 (DE3)pLysS
# T1 sequence (Q12306 whole entry): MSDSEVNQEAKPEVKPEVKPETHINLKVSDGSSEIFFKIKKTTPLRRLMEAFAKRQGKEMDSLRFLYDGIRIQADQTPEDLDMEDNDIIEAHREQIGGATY
# Description: For the production of the doubly labeled U-[^13C, ^15N] […] The purification protocol remained the same as described above.
# The samples contained 0.3–0.6 mM of U-[^13C,^15N] […] All NMR spectra were acquired at 298 K on a Bruker Avance III HD 800 MHz spectrometer, equipped with a TCI cryoprobe. The NMR data were processed in TopSpin 3.6 (Bruker) or NMRPipe[70] and analyzed in CCPNMR[71]. Assignments of Smt3 backbone amide resonances were taken from literature[72] and verified by 3D HNCACB, HN(CO)CACB, and ^15N-edited NOESY-HSQC spectra. […] The assigned ^1H, ^13C and ^15N chemical shifts of the free and bound Smt3 have been deposited in the Biological Magnetic Resonance Bank (http://www.bmrb.wisc.edu/) under the accession number 53209.
# The NMR binding experiments were performed by an incremental addition of wild-type or mutant SIM peptides (1.2 mM stocks in the working buffer) to 0.3 mM samples of U-[^13C,^15N] Smt3, with the spectral changes monitored in [^1H,^15N] HSQC spectra acquired at each increment. The average chemical shift perturbations (Δδavg) were calculated as Δδavg = (ΔδX^2/50 + ΔδH^2/2)^0.5, where ΔδX and ΔδH are the chemical shift changes of the backbone amide nitrogens or methyl carbons (ΔδX) and protons (ΔδH) of Smt3 residues upon addition of 1.2 molar equivalents of SIM peptides, and n = 50 or 9 for the backbone amide and methyl groups, respectively.
# Mer2 [3] = assay: In vitro colocalization of Mre11 with Mer2 condensates; format: binding, S. cerevisiae
# Description: Proteins were diluted to a 10× stock of their appropriate working concentrations in their respective storage buffers. […] Unless specified otherwise, all reactions contained 400 nM ^Alexa488Mre11 or 100 nM ^eGFPMRX. A typical 20 μL binding reaction contained 2 μL protein of 10× stock of indicated concentration, 10 μL of 2× reaction buffer, and 150 ng of supercoiled pUC19 (5.7 nM). Typical reactions were assembled at 30°C for 30 mins with gentle mixing every 5 mins, unless mentioned otherwise. 5 μL was dropped onto a microscope slide and covered with a coverslip. All images were captured on a Zeiss Axio Observer with a 100×/1.4 NA oil immersion objective except for images provided in Figure 4G which were captured on Leica Stellaris DMI 8 confocal microscope with a 63x/1.2 NA water immersion objective. Images were analyzed with ImageJ using a custom-made script. In brief, 129.24 × 129.24-μm (2048 × 2048-pixel) images were thresholded to mean intensity of the background plus three times the standard deviation of the background. Masked foci were counted and the intensity inside the focus mask was integrated. Data points represent averages of at least 8–10 images per sample. Data were analyzed using Graphpad Prism 10.4.0.
# Mer2 [4] = assay: Co-expression NiNTA pulldown of MBP-Mre11-C49 (prey) with HisSUMO-Mer2 (bait); format: binding, S. cerevisiae; conditions: co-expression in E. coli, anti-MBP elution/input signal normalized to wild type, at least seven independent samples
# From the text: The vector for expression of ^MBPMre11-C49 and ^HisSUMOMer2 (pCCB1040) was based on a pET-Duet1 vector with the sequence coding for ^MBPMre11-C49 cloned within the first position (SacI site) and the sequence coding for ^HisSUMOMer2 cloned at the second position (XhoI site). The EQEK mutations and LLK mutations were introduced by PCR amplification of pCCB1040 with primers cb1561 and cb1562, and pp84 and pp85, followed by phosphorylation and self-ligation to yield plasmids pry59 and pry61, respectively.
# Wild-type and mutant MBP-tagged Mre11-C49 and HisSUMO-tagged Mer2 were co-expressed in 50 mL of E. coli BL21 cultures and purified by affinity chromatography on Ni-NTA resin following a procedure similar to that described above. Briefly, cells were lysed by sonication and centrifuged at maximum speed for 30 mins at 4°C on a table-top centrifuge. A small fraction of the supernatant was collected as ‘Input’ and the remainder was incubated with 120 μL Ni-NTA resin, pre-equilibrated with wash buffer (25 mM HEPES pH 7.5, 20 mM imidazole, 0.1 mM DTT, 0.1 mM PMSF, 10% glycerol), for 1 hour on a rotating wheel at 4°C. The resin was washed twice with 2 ml in batch and five times with 2 ml on column before eluting with 250 μL of 500 mM imidazole in wash buffer. […]
compound,measurement,setting,value
"OCCCCCCO [1,6-hexanediol]",effect on MMS-induced Mre11 foci,[1],readily dissolved MMS-induced foci
"COS(C)(=O)=O [MMS, methylmethanesulfonate]",resistance of mre11-ΔC49 mutant,[2],resistant
same,resistance of mre11-ΔIDR mutants,[2],as resistant to MMS or CPT as wild-type cells
CC[C@@]1(O)C(=O)OCc2c1cc1n(c2=O)Cc2cc3ccccc3nc2-1 [camptothecin],resistance of mre11-ΔC49 mutant,[2],resistant
same,resistance of mre11-ΔIDR mutants,[2],as resistant to MMS or CPT as wild-type cells
ENDIIMVSTDE [wild-type SIM3 peptide],backbone amide chemical shift perturbation of Smt3,Smt3,"induced strong backbone amide chemical shift to Smt3 residues I35, F36, F37, K38, I39 and R46"
"Mre11-C49: Mre11 C-terminal residues (644–692) (SYGLLNGRKTKTKTRPAASTKTASRRGKGRASRTPKTDILGSLLAKKRK; also: MBP fusion, end not given here)",localization of Mre11-C49 around Mer2 condensates,"Mer2 [3]; 800 nM mScarletMre11-C49 and 200 nM eGFPMer2, 30 min",forms a halo-like structure around Mer2 condensates
same,independent condensate formation of Mre11-C49,Mer2 [3]; 800 nM mScarletMre11-C49 without eGFPMer2,does not form condensates independently
same,interaction of Mre11-C49 and Mer2 in pulldown (anti-MBP immunoblot),Mer2 [4],directly binds Mer2
"Mre11-LLK: Mre11-C49 with L683, L686, and K690 mutated to alanine (SYGLLNGRKTKTKTRPAASTKTASRRGKGRASRTPKTDIAGSALAKARK; also: MBP fusion, end not given here)",interaction of Mre11-C49 and Mer2 in pulldown (anti-MBP immunoblot),Mer2 [4],strongly decreased the interaction between the two partners
